# The source made the active and inactive calls. The calls are words filed in the database; no cut-off is given here.
# Columns and labels:
# HL-60(TB) = assay: Growth inhibition of human HL-60(TB) cells at 10 uM by NCI-60 cell inhibition assay; format: functional; settings: read-out: GI
# ACHN = assay: Growth inhibition of human ACHN cells at 10 uM by NCI-60 cell inhibition assay; format: functional; settings: read-out: GI
# HOP-92 = assay: Growth inhibition of human HOP92 cells at 10 uM by NCI-60 cell inhibition assay; format: functional; settings: read-out: GI
# NCI-H522 = assay: Growth inhibition of human NCI-H522 cells at 10 uM by NCI-60 cell inhibition assay; format: functional; settings: read-out: GI
# SK-OV-3 = assay: Growth inhibition of human SKOV3 cells at 10 uM by NCI-60 cell inhibition assay; format: functional; settings: read-out: GI
# [1] = Growth inhibition of human […] cells at 10 uM by NCI-60 cell inhibition assay; format: functional; settings: read-out: GI
# HCC 2998 = assay: Growth inhibition of human HCC2998 cells at 10 uM by NCI-60 cell inhibition assay; format: functional; settings: read-out: GI
# Mus musculus = species on record: Mus musculus; assay: Toxicity in mouse assessed as drug tolerance; format: organism-based; settings: in vivo
# OVCAR-3 = assay: Growth inhibition of human OVCAR3 cells at 10 uM by NCI-60 cell inhibition assay; format: functional; settings: read-out: GI
# [2] = Growth inhibition of human Hs 578T cells at 10 uM by NCI-60 cell inhibition assay; format: functional; settings: read-out: GI
# SN12C = assay: Growth inhibition of human SN12C cells at 10 uM by NCI-60 cell inhibition assay; format: functional; settings: read-out: GI
# OVCAR-4 = assay: Growth inhibition of human OVCAR4 cells at 10 uM by NCI-60 cell inhibition assay; format: functional; settings: read-out: GI
# Hs 683 = assay: cells; settings: Homo sapiens, Hs 683, 72 h
# NCI-H23 = assay: Growth inhibition of human NCI-H23 cells at 10 uM by NCI-60 cell inhibition assay; format: functional; settings: read-out: GI
# T47D = assay: Growth inhibition of human T47D cells at 10 uM by NCI-60 cell inhibition assay; format: functional; settings: read-out: GI
# MDA-MB-468 = assay: Growth inhibition of human MDA-MB-468 cells at 10 uM by NCI-60 cell inhibition assay; format: functional; settings: read-out: GI
# DU-145 = assay: Growth inhibition of human DU145 cells at 10 uM by NCI-60 cell inhibition assay; format: functional; settings: read-out: GI
# MCF7 = assay: Growth inhibition of human MCF7 cells at 10 uM by NCI-60 cell inhibition assay; format: functional; settings: read-out: GI
# HCT-15 = assay: Growth inhibition of human HCT15 cells at 10 uM by NCI-60 cell inhibition assay; format: functional; settings: read-out: GI
# MDA-MB-435 = assay: Growth inhibition of human MDA-MB-435 cells at 10 uM by NCI-60 cell inhibition assay; format: functional; settings: read-out: GI
# UACC-62 = assay: Growth inhibition of human UACC62 cells at 10 uM by NCI-60 cell inhibition assay; format: functional; settings: read-out: GI
# SK-MEL-5 = assay: Growth inhibition of human SK-MEL-5 cells at 10 uM by NCI-60 cell inhibition assay; format: functional; settings: read-out: GI
# T98G = assay: cells; settings: Homo sapiens, 72 h
# UO-31 = assay: Growth inhibition of human UO31 cells at 10 uM by NCI-60 cell inhibition assay; format: functional; settings: read-out: GI
# [3] = Inhibition of eIF2 protein expression in human Hs683 cells at 0.5 uM after 4 hrs by Western blotting method; format: functional, cell-based; settings: Hs 683
# SF-295 = assay: Growth inhibition of human SF295 cells at 10 uM by NCI-60 cell inhibition assay; format: functional; settings: read-out: GI
# BT-549 = assay: Growth inhibition of human BT549 cells at 10 uM by NCI-60 cell inhibition assay; format: functional; settings: read-out: GI
# SNB-19 = assay: Growth inhibition of human SNB19 cells at 10 uM by NCI-60 cell inhibition assay; format: functional; settings: read-out: GI
# U-373MG ATCC = assay: Inhibition of eIF2 activity in human U373 cells at 0.5 uM after 4 hrs by Western blotting method; format: functional, cell-based
# MOLT-4 = assay: Growth inhibition of human MOLT4 cells at 10 uM by NCI-60 cell inhibition assay; format: functional; settings: read-out: GI
# OVCAR-8 = assay: Growth inhibition of human OVCAR8 cells at 10 uM by NCI-60 cell inhibition assay; format: functional; settings: read-out: GI
# SR = assay: Growth inhibition of human SR cells at 10 uM by NCI-60 cell inhibition assay; format: functional; settings: read-out: GI
# LOX IMVI = assay: Growth inhibition of human LOXIMVI cells at 10 uM by NCI-60 cell inhibition assay; format: functional; settings: read-out: GI
# SW-620 = assay: Growth inhibition of human SW620 cells at 10 uM by NCI-60 cell inhibition assay; format: functional; settings: read-out: GI
# NCI-H226 = assay: Growth inhibition of human NCI-H226 cells at 10 uM by NCI-60 cell inhibition assay; format: functional; settings: read-out: GI
# cells = settings: Homo sapiens, U373 MG, 72 h
# MDA-MB-231 = assay: Growth inhibition of human MDA-MB-231 cells at 10 uM by NCI-60 cell inhibition assay; format: functional; settings: read-out: GI
# SK-MEL-28 = assay: Growth inhibition of human SK-MEL-28 cells at 10 uM by NCI-60 cell inhibition assay; format: functional; settings: read-out: GI
# PC-3 = assay: Growth inhibition of human PC3 cells at 10 uM by NCI-60 cell inhibition assay; format: functional; settings: read-out: GI
# [4] = Solubility of compound at pH 7.4; format: physicochemical; settings: buffer, read-out: solubility
# HCT-116 = assay: Growth inhibition of human HCT116 cells at 10 uM by NCI-60 cell inhibition assay; format: functional; settings: read-out: GI
# IGROV-1 = assay: Growth inhibition of human IGROV1 cells at 10 uM by NCI-60 cell inhibition assay; format: functional; settings: read-out: GI
# COLO 205 = assay: Growth inhibition of human COLO205 cells at 10 uM by NCI-60 cell inhibition assay; format: functional; settings: read-out: GI
# [5] = Stability in cell culture medium without serum assessed as compound recovery after 72 hrs; format: physicochemical; settings: read-out: Stability
# [6] = Cytostatic activity in human U373 cells at 0.4 uM assessed global growth ratio after 72 hrs by quantitative video microscopy; format: functional, U-373MG ATCC
# EKVX = assay: Growth inhibition of human EKVX cells at 10 uM by NCI-60 cell inhibition assay; format: functional; settings: read-out: GI
# HOP-62 = assay: Growth inhibition of human HOP62 cells at 10 uM by NCI-60 cell inhibition assay; format: functional; settings: read-out: GI
# SNB-75 = assay: Growth inhibition of human SNB75 cells at 10 uM by NCI-60 cell inhibition assay; format: functional; settings: read-out: GI
# UACC-257 = assay: Growth inhibition of human UACC257 cells at 10 uM by NCI-60 cell inhibition assay; format: functional; settings: read-out: GI
# U-251 = assay: Growth inhibition of human U251 cells at 10 uM by NCI-60 cell inhibition assay; format: functional; settings: read-out: GI
# [7] = Growth inhibition of human OE21 cells after 3 days by MTT assay; format: functional, cell-based; settings: OE21, 72 h
# A498 = assay: Growth inhibition of human A498 cells at 10 uM by NCI-60 cell inhibition assay; format: functional; settings: read-out: GI
smiles,measurement,setting,value
Cc1c2c(cc[n+]1Cc1ccccc1)c1ccc(OCC3CCCCC3)cc1n2CC1CCCCC1.[Br-],inhibition of growth at 10 µM,HL-60(TB),-53.4%
same,inhibition of growth at 10 µM,ACHN,-100%
same,inhibition of growth at 10 µM,HOP-92,-85.6%
same,inhibition of growth at 10 µM,NCI-H522,-84.5%
same,inhibition of growth at 10 µM,SK-OV-3,-53.4%
same,inhibition of growth at 10 µM,[1],-45.2%
same,inhibition of growth at 10 µM,HCC 2998,-93.2%
same,Activity,Mus musculus,Toxic
same,inhibition of growth at 10 µM,OVCAR-3,-100%
same,inhibition of growth at 10 µM,[2],-36.2%
same,inhibition of growth at 10 µM,SN12C,-91.9%
same,inhibition of growth at 10 µM,OVCAR-4,-94.3%
same,IC50,Hs 683,380 nM
same,inhibition of growth at 10 µM,NCI-H23,-76.7%
same,inhibition of growth at 10 µM,T47D,-74.1%
same,inhibition of growth at 10 µM,MDA-MB-468,-86.6%
same,inhibition of growth at 10 µM,DU-145,-100%
same,inhibition of growth at 10 µM,MCF7,-92.3%
same,inhibition of growth at 10 µM,HCT-15,-81.7%
same,inhibition of growth at 10 µM,MDA-MB-435,-84.9%
same,inhibition of growth at 10 µM,UACC-62,-94%
same,inhibition of growth at 10 µM,SK-MEL-5,-100%
same,IC50,T98G,160 nM
same,inhibition of growth at 10 µM,UO-31,-93.1%
same,inhibition,[3],inactive
same,inhibition of growth at 10 µM,SF-295,-92.8%
same,inhibition of growth at 10 µM,BT-549,-91%
same,inhibition of growth at 10 µM,SNB-19,-90.7%
same,inhibition,U-373MG ATCC,inactive
same,inhibition of growth at 10 µM,MOLT-4,-64.5%
same,inhibition of growth at 10 µM,OVCAR-8,-90.1%
same,inhibition of growth at 10 µM,SR,-57.6%
same,inhibition of growth at 10 µM,LOX IMVI,-95.6%
same,inhibition of growth at 10 µM,SW-620,-96.6%
same,inhibition of growth at 10 µM,NCI-H226,-89.1%
same,IC50,cells,370 nM
same,inhibition of growth at 10 µM,MDA-MB-231,-92%
same,inhibition of growth at 10 µM,SK-MEL-28,-95.8%
same,inhibition of growth at 10 µM,PC-3,-75.8%
same,solubility,[4],123 µM
same,inhibition of growth at 10 µM,HCT-116,-98.3%
same,inhibition of growth at 10 µM,IGROV-1,-70.6%
same,inhibition of growth at 10 µM,COLO 205,-95.2%
same,remaining at 72 h,[5],> 95%
same,Ratio,[6],0.25
same,inhibition of growth at 10 µM,EKVX,-75.5%
same,inhibition of growth at 10 µM,HOP-62,-95%
same,inhibition of growth at 10 µM,SNB-75,-87.3%
same,inhibition of growth at 10 µM,UACC-257,-92.4%
same,inhibition of growth at 10 µM,U-251,-92.5%
same,IC50,[7],420 nM
same,inhibition of growth at 10 µM,A498,-97.4%
Cc1c2c(cc[n+]1Cc1ccccc1)c1ccc(OCc3ccccc3)cc1n2Cc1ccccc1.[Br-],inhibition of growth at 10 µM,HL-60(TB),-54.1%
same,inhibition of growth at 10 µM,ACHN,8.54%
same,inhibition of growth at 10 µM,HOP-92,-67.8%
same,inhibition of growth at 10 µM,NCI-H522,-47.1%
same,inhibition of growth at 10 µM,SK-OV-3,7.67%
same,inhibition of growth at 10 µM,[1],-21.6%
same,inhibition of growth at 10 µM,HCC 2998,-81.8%
same,Activity,Mus musculus,Toxic
same,inhibition of growth at 10 µM,OVCAR-3,-97.1%
same,inhibition of growth at 10 µM,[2],-35.9%
same,inhibition of growth at 10 µM,SN12C,-86.6%
same,inhibition of growth at 10 µM,OVCAR-4,-3.79%
same,IC50,Hs 683,500 nM
same,inhibition of growth at 10 µM,NCI-H23,-12.2%
same,inhibition of growth at 10 µM,T47D,-4.02%
same,inhibition of growth at 10 µM,MDA-MB-468,-42.3%
same,inhibition of growth at 10 µM,DU-145,-33.6%
same,inhibition of growth at 10 µM,MCF7,-23.1%
same,inhibition of growth at 10 µM,HCT-15,39.2%
same,inhibition of growth at 10 µM,MDA-MB-435,-93.8%
same,inhibition of growth at 10 µM,UACC-62,-87.1%
same,inhibition of growth at 10 µM,SK-MEL-5,-99.4%
same,IC50,T98G,480 nM
same,inhibition of growth at 10 µM,UO-31,-18.2%
same,inhibition,[3],Active
same,inhibition of growth at 10 µM,SF-295,-69.2%
same,inhibition of growth at 10 µM,BT-549,-90.4%
same,inhibition of growth at 10 µM,SNB-19,-13.3%
same,inhibition,U-373MG ATCC,Active
same,inhibition of growth at 10 µM,MOLT-4,-51%
same,inhibition of growth at 10 µM,OVCAR-8,-70.9%
same,inhibition of growth at 10 µM,SR,-52.5%
same,inhibition of growth at 10 µM,LOX IMVI,-93.2%
same,inhibition of growth at 10 µM,SW-620,-88.1%
same,inhibition of growth at 10 µM,NCI-H226,-12%
same,IC50,cells,440 nM
same,inhibition of growth at 10 µM,MDA-MB-231,-85.1%
same,inhibition of growth at 10 µM,SK-MEL-28,-56.5%
same,inhibition of growth at 10 µM,PC-3,-44.8%
same,solubility,[4],461 µM
same,inhibition of growth at 10 µM,HCT-116,-95.6%
same,inhibition of growth at 10 µM,IGROV-1,-65.1%
same,inhibition of growth at 10 µM,COLO 205,-82.3%
same,remaining at 72 h,[5],> 95%
same,Ratio,[6],0.4
same,inhibition of growth at 10 µM,EKVX,-28.8%
same,inhibition of growth at 10 µM,HOP-62,-70.9%
same,inhibition of growth at 10 µM,SNB-75,-18%
same,inhibition of growth at 10 µM,UACC-257,-0.65%
same,inhibition of growth at 10 µM,U-251,-80.2%
same,IC50,[7],1300 nM
same,inhibition of growth at 10 µM,A498,-34.5%

# — ChEMBL document CHEMBL2163222 (J Med Chem, 2012)
